Experimental findings from ChEMBL document CHEMBL1142640, “New natural product isolation and comparison of the secondary metabolite content of three distinct samples of the sea hare Aplysia dactylomela from tenerife” (J Nat Prod, 2000) are described below.

Series [1] deals with Artemia salina. Briefly: Toxicity in Artemia salina at 0.5 mg/mL after 48 hrs. The class given is organism-based. The settings on record: in vivo, 48 h.
Series [2] relates to Mycotypha microspora. Briefly: Antifungal activity against Mycotypha microspora at 50 ug/disk. Type of series: functional.
For series [3], the system named is Fusarium oxysporum. The series is described as follows: Antifungal activity against Fusarium oxysporum at 50 ug/disk. The class given is functional.
The subject of series [4] is Escherichia coli. The series is described as follows: Antibacterial activity against Escherichia coli at 50 ug/disk. Type of series: functional.
Series [5] deals with [Chlorella] fusca. The series is described as follows: Antialgal activity against Chlorella fusca at 50 ug/disk. Type of series: functional. The settings on record: Scenedesmus fuscus; for zone of inhibition at 50 µg/disc: read-out: IZ.
The subject of series [6] is Microbotryum violaceum. The series is described as follows: Antifungal activity against Microbotryum violaceae at 50 ug/disk. The class given is functional.
For series [7], the system named is Aspergillus pseudoglaucus. Briefly: Antifungal activity against Eurotium repens at 50 ug/disk. Type of series: functional.
Series [8] concerns Priestia megaterium. Briefly: Antibacterial activity against Bacillus megaterium at 50 ug/disk. The class given is functional.
Series [9] concerns Lu1. The series is described as follows: Cytotoxicity against human Lu1 cells. The class given is functional, cell-based.
Series [10] deals with KB. The series is described as follows: Cytotoxicity against human KB cells. The class given is functional, cell-based.
Series [11] deals with ZR-75-1. The series is described as follows: Cytotoxicity against human ZR-75-1 cells. Type of series: functional, cell-based.

Calls of active or inactive are those of the source. No cut-off for these calls is given here.

Regarding `CC(=O)O[C@@H]1C[C@@H](Br)C(C)(C)O[C@]1(C)[C@H]1CC[C@](C)(Cl)[C@@H](Br)C1`, the Activity entry in [1] is “Not Active”. Further, the result in [2], in series [3], in [4], in [5], in [6] and in series [7] was inactive. Further, the result in [8] was inactive.
Regarding `CC1(C)C=CC(=O)[C@@](C)([C@H]2CC[C@](C)(Cl)[C@@H](Br)C2)O1` [CAESSPITENONE], the Activity result in series [1] was “Not Active”. Also, the result in series [2], in series [3], in [4], in series [5], in series [6] and in series [7] was inactive. Further, in series [8], the result was inactive.
For `C=C[C@@](C)(O)CC[C@H]1[C@](C)(CC[C@H](Br)C(C)(C)Cl)[C@@H]2CC[C@@]1(C)O2` [DACTYLOMELOL], in [1], the Activity result was “Not Active”. Besides, the result in series [2], in [3], in series [4], in series [5], in [6] and in [7] was inactive. The result in [8] was inactive.
As to `C=C[C@]1(C)CC[C@@H](Br)[C@](C)(CC[C@@H]2[C@@H](C)[C@]3(C)CC[C@@]2(C)O3)O1` [DACTYLOPYRANOID], in series [1], the Activity entry is “Not Active”. For the same compound, the outcome in [2], in series [3], in series [4], in [5], in series [6] and in [7] was inactive. Besides, in series [8], the result was inactive.
Take `CCOC(=O)c1ccccc1C(=O)OCC` [DIETHYL PHTHALATE]: the zone of inhibition at 50 µg/disc in [5] amounted to 13 mm.
Consider `Cc1cc([C@H]2CC[C@](C)(Cl)[C@@H](Br)C2)co1` [FUROCAESPITANE], for which, in series [1], the Activity entry is on record as “Not Active”. The outcome in series [2], in [3], in [4], in [5], in series [6] and in series [7] was inactive. Besides, in series [8], the outcome was inactive.
Consider `C=CC(C)(O)CC[C@@H]1C(=C)CC[C@@H]2C(C)(C)[C@H](Br)CC[C@@]12C` (stereo partly specified) [ISOPINNATOL B], for which the IC50 in [9], in [10] and in [11] was more than 25 µg/mL throughout. Also, the result in [1] was Active. The result in series [3], in series [4], in [5], in series [6], in [7] and in [8] was inactive.
On to `CC1=C([C@H]2CC[C@](C)(Cl)[C@@H](Br)C2)C[C@@H](Br)C(C)(C)O1` [LAUCAPYRANOID A], for which the Activity entry in series [1] is on record as “Not Active”. In addition, the outcome in series [2], in series [3], in series [4], in series [5], in [6] and in series [7] was inactive. Also, the result in series [8] was inactive.
With `Clc1ccc(COC(Cn2ccnc2)c2ccc(Cl)cc2Cl)c(Cl)c1` (stereo unspecified) [MICONAZOLE], the zone of inhibition at 50 µg/disc in series [2] (read-out: IZ) was 5 mm; in series [3] (read-out: IZ), 32 mm; in series [4] (read-out: IZ), 1 mm; in series [5] it was 4 mm; in [6] (read-out: IZ) it was 20 mm; in series [7] (read-out: IZ) it was 3 mm. In addition, the zone of inhibition at 50 µg/disc in [8] (read-out: IZ) stood at 10 mm.

The term IC50 denotes the midpoint of a concentration-inhibition curve. High values mean weaker potency in that assay, low ones greater potency in that assay.
